Source: PubChem BioAssay (NCI)
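Dose response: 5 concentrations. Exposure: 48 h. Format: 96-well plates. Endpoint: linear interpolation; highest concentration if not reached. GI50 is the concentration that inhibits growth by half. The concentration for full growth arrest is given as TGI.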

What was measured:
Test in all cases: growth of human tumour cells (NCI), 48 h
[1] = test system: 786-0 renal
[2] = test system: A498 renal
[3] = test system: A549 NSCLC
[4] = test system: ACHN renal
[5] = test system: BT-549 breast
[6] = test system: CAKI-1 renal
[7] = test system: CCRF-CEM leukemia
[8] = test system: COLO 205 colon
[9] = test system: DU-145 prostate
[10] = test system: EKVX NSCLC
[11] = test system: HCC-2998 colon
[12] = test system: HCT-116 colon
[13] = test system: HCT-15 colon
[14] = test system: HL-60(TB) leukemia
[15] = test system: HOP-62 NSCLC
[16] = test system: HOP-92 NSCLC
[17] = test system: HS 578T breast
[18] = test system: HT29 colon
[19] = test system: IGROV1 ovarian
[20] = test system: K-562 leukemia
[21] = test system: KM12 colon
[22] = test system: LOX IMVI melanoma
[23] = test system: M14 melanoma
[24] = test system: MALME-3M melanoma
[25] = test system: MCF7 breast
[26] = test system: MDA-MB-231 breast
[27] = test system: MDA-MB-435
[28] = test system: MDA-MB-468 breast
[29] = test system: MOLT-4 leukemia
[30] = test system: NCI-H226 lung
[31] = test system: NCI-H23 lung
[32] = test system: NCI-H460 lung
[33] = test system: NCI-H522 lung
[34] = test system: OVCAR-3 ovarian
[35] = test system: OVCAR-4 ovarian
[36] = test system: OVCAR-5 ovarian
[37] = test system: OVCAR-8 ovarian
[38] = test system: PC-3 prostate
[39] = test system: RPMI-8226 leukemia
[40] = test system: RXF 393 renal
[41] = test system: SF-268 CNS
[42] = test system: SF-295 CNS
[43] = test system: SF-539 CNS
[44] = test system: SK-MEL-2 melanoma
[45] = test system: SK-MEL-28 melanoma
[46] = test system: SK-MEL-5 melanoma
[47] = test system: SK-OV-3 ovarian
[48] = test system: SN12C renal
[49] = test system: SNB-19 CNS
[50] = test system: SNB-75 CNS
[51] = test system: SR leukemia
[52] = test system: SW-620 colon
[53] = test system: T-47D breast
[54] = test system: TK-10 renal
[55] = test system: U251 CNS
[56] = test system: UACC-257 melanoma
[57] = test system: UACC-62 melanoma
[58] = test system: UO-31 renal

## O=C(c1ccc(O)cc1)C1[C@H](c2ccccc2Br)[C@@H](c2ccccc2)NC12C(=O)Nc1ccc(Cl)cc12 (some centres not stated)
[1]
  GI50: 6.57 µM
  TGI: 13.7 µM
[2]
  GI50: 6.57 µM
  TGI: 13.9 µM
[3]
  GI50: 3.43 µM
  TGI: 11.2 µM
[4]
  GI50: 5.39 µM
  TGI: 11.8 µM
[5]
  GI50: 2.19 µM
  TGI: 9.37 µM
[6]
  GI50: 2 µM
  TGI: 8.85 µM
[7]
  GI50: 3.49 µM
  TGI: 16.5 µM
[8]
  GI50: 7.35 µM
  TGI: 15.7 µM
[9]
  GI50: 8.01 µM
  TGI: 16.5 µM
[10]
  GI50: 6.65 µM
  TGI: 15.4 µM
[11]
  GI50: 2.42 µM
  TGI: 9.01 µM
[12]
  GI50: 4.12 µM
  TGI: 11.4 µM
[13]
  GI50: 6.63 µM
  TGI: 16.1 µM
[14]
  GI50: 5.86 µM
  TGI: 20.3 µM
[15]
  GI50: 7.08 µM
  TGI: 14.9 µM
[16]
  GI50: 3.03 µM
  TGI: 11.6 µM
[17]
  GI50: 6.2 µM
  TGI: 22.6 µM
[18]
  GI50: 7.36 µM
  TGI: 17.9 µM
[19]
  GI50: 2.3 µM
  TGI: 9.11 µM
[20]
  GI50: 3.75 µM
  TGI: 17.9 µM
[21]
  GI50: 2.91 µM
  TGI: 11.1 µM
[22]
  GI50: 5.53 µM
  TGI: 13.1 µM
[23]
  GI50: 4.77 µM
  TGI: 12.4 µM
[24]
  GI50: 7.89 µM
  TGI: 15.3 µM
[25]
  GI50: 3.17 µM
  TGI: 13.7 µM
[26]
  GI50: 4.68 µM
  TGI: 11.8 µM
[27]
  GI50: 4.78 µM
  TGI: 12.9 µM
[28]
  GI50: 1.61 µM
  TGI: 6.96 µM
[29]
  GI50: 2.2 µM
  TGI: 11.4 µM
[30]
  GI50: 1.57 µM
  TGI: 6.22 µM
[31]
  GI50: 6.65 µM
  TGI: 14.4 µM
[32]
  GI50: 4.72 µM
  TGI: 12.7 µM
[33]
  GI50: 2.23 µM
  TGI: 8.45 µM
[34]
  GI50: 2.76 µM
  TGI: 9.34 µM
[35]
  GI50: 4.69 µM
  TGI: 13.7 µM
[36]
  GI50: 6.25 µM
  TGI: 13 µM
[37]
  GI50: 6.72 µM
  TGI: 14.6 µM
[38]
  GI50: 2.8 µM
  TGI: 11.3 µM
[39]
  GI50: 3.29 µM
  TGI: 43.8 µM
[40]
  GI50: 2.86 µM
  TGI: 10.5 µM
[41]
  GI50: 3.99 µM
  TGI: 13.4 µM
[42]
  GI50: 4.98 µM
  TGI: 12.5 µM
[43]
  GI50: 6.11 µM
  TGI: 12.8 µM
[44]
  GI50: 6.49 µM
  TGI: 13.8 µM
[45]
  GI50: 7.51 µM
  TGI: 14.7 µM
[46]
  GI50: 8.68 µM
  TGI: 16.8 µM
[47]
  GI50: 7.69 µM
  TGI: 15.4 µM
[48]
  GI50: 1.7 µM
  TGI: 6.32 µM
[49]
  GI50: 5.97 µM
  TGI: 12.6 µM
[50]
  GI50: 1.44 µM
  TGI: 8.12 µM
[51]
  GI50: 2.01 µM
  TGI: 9.34 µM
[52]
  GI50: 6.73 µM
  TGI: 14.8 µM
[53]
  GI50: 5.51 µM
  TGI: 14.9 µM
[54]
  GI50: 7.76 µM
  TGI: 16 µM
[55]
  GI50: 3.46 µM
  TGI: 10.8 µM
[56]
  GI50: 6.51 µM
  TGI: 13.5 µM
[57]
  GI50: 5.71 µM
  TGI: 12.2 µM
[58]
  GI50: 3.26 µM
  TGI: 10.9 µM

## CC1=C(COCCOC(=O)c2ccc(S(=O)(=O)F)cc2)C2=C(C)C3(CC3)[C@@](C)(O)C(=O)C2=C1
[1]
  GI50: 19 µM
  TGI: 42.3 µM
[2]
  GI50: 18.6 µM
  TGI: 43.7 µM
[3]
  GI50: 25.9 µM
  TGI: 80.8 µM
[4]
  GI50: 21.7 µM
  TGI: 49.9 µM
[5]
  GI50: 14.9 µM
  TGI: 32.2 µM
[6]
  GI50: 16 µM
  TGI: 32.5 µM
[7]
  GI50: 21.4 µM
  TGI: 52.3 µM
[8]
  GI50: 19.6 µM
  TGI: 37.2 µM
[9]
  GI50: 24.1 µM
  TGI: 57.2 µM
[10]
  GI50: 17.5 µM
  TGI: 33.8 µM
[11]
  GI50: 18.5 µM
  TGI: 33.6 µM
[12]
  GI50: 16.7 µM
  TGI: 32.4 µM
[13]
  GI50: 20.8 µM
  TGI: 43.1 µM
[14]
  GI50: 24.3 µM
  TGI: 55.1 µM
[15]
  GI50: 21.6 µM
  TGI: 58.2 µM
[16]
  GI50: 16.6 µM
  TGI: 42.2 µM
[17]
  GI50: 25.4 µM
  TGI: 99.6 µM
[18]
  GI50: 18.4 µM
  TGI: 35.9 µM
[19]
  GI50: 17 µM
  TGI: 32.4 µM
[20]
  GI50: 25.8 µM
  TGI: 58.5 µM
[21]
  GI50: 23.6 µM
  TGI: 53.8 µM
[22]
  GI50: 17.8 µM
  TGI: 34.6 µM
[23]
  GI50: 18.9 µM
  TGI: 36.9 µM
[24]
  GI50: 16 µM
  TGI: 30.8 µM
[25]
  GI50: 27 µM
  TGI: 91.2 µM
[26]
  GI50: 17.7 µM
  TGI: 34.2 µM
[27]
  GI50: 22.2 µM
  TGI: 52.2 µM
[28]
  GI50: 18.7 µM
  TGI: 40.1 µM
[29]
  GI50: 26.3 µM
  TGI: 72.3 µM
[30]
  GI50: 27.9 µM
  TGI: 85.7 µM
[31]
  GI50: 19.4 µM
  TGI: 37.5 µM
[32]
  GI50: 21.6 µM
  TGI: 45.8 µM
[33]
  GI50: 16 µM
  TGI: 30.9 µM
[34]
  GI50: 18.4 µM
  TGI: 34.7 µM
[35]
  GI50: 20.1 µM
  TGI: 48.4 µM
[36]
  GI50: 18.1 µM
  TGI: 36.6 µM
[37]
  GI50: 18.9 µM
  TGI: 40.1 µM
[38]
  GI50: 19.8 µM
  TGI: 51.3 µM
[39]
  GI50: 26 µM
  TGI: 69.4 µM
[40]
  GI50: 17.5 µM
  TGI: 34.8 µM
[41]
  GI50: 26 µM
  TGI: 77.6 µM
[42]
  GI50: 22.1 µM
  TGI: 51.6 µM
[43]
  GI50: 17.7 µM
  TGI: 33.9 µM
[44]
  GI50: 17.9 µM
  TGI: 35.3 µM
[45]
  GI50: 16.2 µM
  TGI: 30.1 µM
[46]
  GI50: 20 µM
  TGI: 39.5 µM
[47]
  GI50: 18.6 µM
  TGI: 39.5 µM
[48]
  GI50: 16.6 µM
  TGI: 30.4 µM
[49]
  GI50: 17 µM
  TGI: 32.5 µM
[50]
  GI50: 16.3 µM
  TGI: 49.7 µM
[51]
  GI50: 22.5 µM
  TGI: 56.2 µM
[52]
  GI50: 17.5 µM
  TGI: 33.9 µM
[53]
  GI50: 17.7 µM
  TGI: 40 µM
[54]
  GI50: 19.6 µM
  TGI: 45.3 µM
[55]
  GI50: 18.1 µM
  TGI: 37.3 µM
[56]
  GI50: 17.7 µM
  TGI: 38.3 µM
[57]
  GI50: 16.2 µM
  TGI: 30.2 µM
[58]
  GI50: 17 µM
  TGI: 44.8 µM
